# Experiments:
# Format in all cases: in vivo
# GRP78 = test: Western blot of GRP78 in hippocampus; details: Tg2576 mice, 200 mg/kg i.p. 5 weeks; compared with non-transgenic mice (FIG. 4)
# Source text: (§1) We used Tg2576 transgenic mice with Alzheimer's Disease expressing the 695-aa human APP isoform which contains the double APPswe Swedish mutation [(APP695) Lys670→Asn, Met671→Leu] triggered by a […] hamster promoter. In the Tg2576 transgenic mice suffering from Alzheimer's disease used in the experimental murine model, the Aβ peptide content in the brain accumulates exponentially between their 7th and 12th months of life. […] Therefore 16 months old Tg2576 transgenic mice females were treated once a day intraperitoneally with 200 mg/kg 4PBA or its vehicle during 5 weeks. […]
# (§2) NaF) spun at 14,000×g, 4° C. for 20 min and the aliquots obtained from the supernatant were then freeze-dried at −80° C. […] Protein concentration was determined in both cases (using the Bradford test from Bio-Rad) and the aliquots stored at −80° C. until further use. […]
# (§3) To carry out the Western Blot analyses, protein samples were mixed in buffers having the same volumes (2×Laemmli) resolved in SDS-polyacrylamide gels and transferred to a nitrocellulose membrane. […] After two washings in PBS/Tween-20 or TBS/Tween20 and one washing in PBS or TBS, immunolabelled protein bands were detected using an anti-rabbit or anti-mouse HRP conjugate (Santa Cruz, 1:5000 dilution) followed by a chemiluminescence system (ECL Amersham Biosciences), and autoradiographic exposure to HyperfilmTMECL (Amersham Biosciences). […]
# Aβ40 = Aβ40 level in cerebral cortex, sandwich ELISA; details: Tg2576 mice, 200 mg/kg i.p. 5 weeks; compared with vehicle-treated transgenic mice (FIG. 2A)
# Source text: as §1, with “weeks. To do this a 4PBA solution was prepared titrating equimolecular amounts of 4-phenylbutyric acid (Sigma) and sodium hydroxide at a pH: 7.4.” for “weeks.”
# (§4) Mice were sacrificed 24 hours after performing the last test in the Morris water maze. […] Then the levels of Aβ40 and Aβ42 in the cerebral cortex were analyzed by a sandwich type ELISA test.
# (§5) The cerebral cortexes were homogenized in a buffer containing 5 M guanidine HCl and 50 mM Tris HCl at a pH=8, protease inhibitors (Roche's CompleteTM Protease Inhibitor Cocktail), and phosphatase inhibitors (0.1 mM Na3VO4, 1 mM NaF). […] Aliquots of the supernatant were freeze-dried at −80° C. and the protein concentration determined using the Bradford method with the Bio-Rad kit. Aβ42 levels were measured with an extra sensitive sandwich-type ELISA kit from Biosource (Camarillo, Calif., USA). […]
# MAP-2 = test: Quantitative western blot of MAP-2 in hippocampal extracts; details: Tg2576 mice, 200 mg/kg i.p. 5 weeks; untreated Tg2576 54.9±10.7, non-transgenic 100.0±14.9 (FIG. 6)
# Source text: as §1, §2, §3
# [1] = test system: GluR1 subunit of the AMPA receptor; test: Western blot of GluR1 in membrane enriched hippocampal protein extracts; details: Tg2576 mice, 200 mg/kg i.p. 5 weeks, vehicle 81.18±9.5%, non-transgenic 100.0±6.5% (FIG. 6)
# Source text: as §1, §2, §3
# Aβ42 = Aβ42 level in cerebral cortex, sandwich ELISA; details: Tg2576 mice, 200 mg/kg i.p. 5 weeks; compared with vehicle-treated transgenic mice (FIG. 2A)
# Source text: as §1, with “weeks. To do this a 4PBA solution was prepared titrating equimolecular amounts of 4-phenylbutyric acid (Sigma) and sodium hydroxide at a pH: 7.4.” for “weeks.”
# as §4, §5
# histone 4 (H4) = test: Western blot of acetylated histone 4 in cortex; details: Tg2576 mice, 200 mg/kg i.p. 5 weeks; cortex extracts (FIG. 5)
# Source text: as §1, with “weeks. To do this a 4PBA solution was prepared titrating equimolecular amounts of 4-phenylbutyric acid (Sigma) and sodium hydroxide at a pH: 7.4.” for “weeks.”
# To carry out the Western Blot analyses, protein samples were mixed in buffers having the same volumes (2×Laemmli) resolved in SDS-polyacrylamide gels and transferred to a nitrocellulose membrane. […] After two washings in PBS/Tween-20 or TBS/Tween20 and one washing in PBS or TBS, immunolabelled protein bands were detected using an anti-rabbit or anti-mouse HRP conjugate (Santa Cruz, 1:5000 dilution) followed by a chemiluminescence system (ECL Amersham Biosciences), and autoradiographic exposure to HyperfilmTMECL (Amersham Biosciences). The signals were quantified using the Scion Image program (Scion Corporation).
# PSD95 = test: Western blot of PSD95 in membrane enriched hippocampal protein extracts; details: Tg2576 mice, 200 mg/kg i.p. 5 weeks; membrane enriched hippocampal extracts (FIG. 6)
# Source text: as §1, §2, §3
# [2] = test system: tau phosphorylated at Ser-202/Thr-205 (AT8); test: Western blot of phosphorylated tau (AT8) in hippocampus; details: Tg2576 mice, 200 mg/kg i.p. 5 weeks; compared with non-transgenic mice (FIG. 3A)
# Source text: as §1, §2, §3
# Tg2576 transgenic mice = test: Morris water maze (spatial learning and memory)
# Source text: We used Tg2576 transgenic mice with Alzheimer's Disease expressing the 695-aa human APP isoform which contains the double APPswe Swedish mutation [(APP695) Lys670→Asn, Met671→Leu] triggered by a […] hamster promoter. In the Tg2576 transgenic mice suffering from Alzheimer's disease used in the experimental murine model, the Aβ peptide content in the brain accumulates exponentially between their 7th and 12th months of life. […] Therefore 16 months old Tg2576 transgenic mice females were treated once a day intraperitoneally with 200 mg/kg 4PBA or its vehicle during 5 weeks. To do this a 4PBA solution was prepared titrating equimolecular amounts of 4-phenylbutyric acid (Sigma) and sodium hydroxide at a pH: 7.4. A group of normal mice, not genetically altered, from same similar strains and ages was used as control group. All the clinical test procedures were performed according to the European and the Spanish legislation (86/609/CEE; RD 1201/2005).
# The Morris water maze was used to evaluate the operational and reference memory functions in Tg2576 transgenic mice treated with 4 PBA as described previously in the literature (Ribe et al., 2005). Groups of Tg2576 female mice treated with 4PBA (n=6), vehicle (n=7), and non-transgenic litter siblings (n=10) were subjected to spatial learning and memory tests using the Morris water maze when they became 16 months old. The maze consisted of a circular pool filled with water at 20° C. The mice received prior training in a pool with a visible platform during 3 consecutive days (8 tests per day) being able to swim towards a platform raised above the water level. The training with hidden platform took 9 consecutive days (4 tests per day) during which all mice were allowed 60 seconds to find the platform submerged 1cm below the water surface. […] All the trials were monitored with a VHS camera and the Watermaze software to analyze escape latencies and the percentage of time of occupation of each pool quadrant during prior tests (using the Ethovision software, Wageninge, Netherlands). […]
# [3] = test system: GSK3b phosphorylated at Ser 9; test: Western blot of inactive GSK3b phosphorylated at Ser 9 in hippocampus; details: Tg2576 mice, 200 mg/kg i.p. 5 weeks; compared with vehicle-treated transgenic mice (FIG. 3B)
# Source text: as §1, §2, §3
smiles,measurement,setting,value
"O=C([O-])CCCc1ccccc1.[Na+] [4PBA, 4-phenylbutyric acid]",GRP78 levels in hippocampus,GRP78,did not differ
same,Aβ40 levels in cerebral cortex,Aβ40,no difference was observed
same,MAP-2 expression levels,MAP-2,77.7±11.6
same,expression levels of the GluR1 subunit of the AMPA receptor,[1],161.37±27.5%
same,Aβ42 levels in cerebral cortex,Aβ42,no difference was observed
same,acetylation of cortical histone 4 (H4),histone 4 (H4),induction of acetylation
same,expression of PSD95 levels,PSD95,induced significantly
same,phosphorylated tau at the AT8 site in hippocampus,[2],no differences were found
same,"proficiency in Morris water maze, invisible platform (escape latency)","Tg2576 transgenic mice; 16 month old Tg2576 female mice, 200 mg/kg i.p. once a day for 5 weeks, compared with non-transgenic control mice of same age (FIG. 1B)",did not differ
same,"escape latencies, visible platform training","Tg2576 transgenic mice; Tg2576 mice, 200 mg/kg i.p. 5 weeks, first training tests with visible platform (FIG. 1A)",did not differ significantly
same,percentage of time spent in the target quadrant (memory retention),"Tg2576 transgenic mice; Tg2576 mice, 200 mg/kg i.p. 5 weeks, platform removed, compared with control group of same age (FIG. 1C)",did not differ
same,levels of inactive GSK3b phosphorylated at Ser 9 in hippocampus,[3],higher
